Assay results as given in US20220339271A1, “MR1 RESTRICTED T CELL RECEPTORS FOR CANCER IMMUNOTHERAPY” (Universität Basel, priority 2018, published 2022).

Experiments:
Type in all cases: cell-based, human
control MAIT cells = assay: E. coli stimulation of control MAIT cells in the presence of 6-FP or Ac-6-FP; settings: for E. coli stimulation of control MAIT cells in the presence of the ligand: A375-MR1 target cells; for inhibition of activation of MAIT cells: target A375 cells expressing mutant MR1 (A375-MR1 K34A)
Protocol: (§1) T cell activation assays. MR1-restricted T cells (5×10^4/well unless otherwise indicated) were co-cultured with indicated target cells (5×10^4/well) in 200 μl total volume in duplicates or triplicates. T cells were cultured with indicated APCs for 24 h. […] E. coli lysate was prepared from the DH5α strain (Invitrogen) grown in LB medium and collected during exponential growth. Bacterial cells were washed twice in PBS and then lysed by sonication. After centrifugation (15,000 g for 15 min), the supernatant was collected, dried, and stored at −70° C. APCs were pulsed for 4 h with E. coli lysate equivalent to 10^8 CFU/ml (unless otherwise indicated) before addition of T cells. In some experiments, APCs were pre-incubated with 6-FP or Ac-6-FP (Schircks Laboratories) for 4 h before co-culture with T cells. In control experiments with TCR γδ cells expressing TCR Vγ9 and Vδ2 chains, the APCs were first treated for 6 h with zoledronate (10 μg/ml) prior to T cell addition. Activation experiments with plate-bound recombinant human β2m-MR1-Fc were performed by coating β2m-MR1-Fc onto 96 well plates (4 μg/ml) and loading with cartridge-purified cell lysates for 4 h at 37° C. before washing twice and adding T cells. Supernatants were collected after 24 h and IFN-γ or GM-CSF were assessed by ELISA. Multiple cytokines and chemokines in cell culture supernatants were analyzed using the Milliplex MAP human cytokine/chemokine magnetic bead panel—Premixed 41 plex (HCYTMAG-60K-PX41; Merck Millipore) according to the manufacturer's instructions. Samples were acquired on a Flexmap 3D system (Merck Millipore) and Milliplex analyst software was used to determine mean fluorescence intensity and analyte concentration.

TCR Vγ9Vδ2 clone G2B9 = assay: Control TCR γδ cell response to zoledronate-treated APCs in the presence of 6-FP or Ac-6-FP
Protocol: as §1, with “In control experiments with TCR γδ cells expressing TCR Vγ9 and Vδ2 chains, the APCs were first treated for 6 h with zoledronate (10 μg/ml) prior to T cell addition. Activation experiments with plate-bound recombinant human β2m-MR1-Fc were performed by coating β2m-MR1-Fc onto 96 well plates (4 μg/ml) and loading with cartridge-purified cell lysates for 4 h at 37° C. before washing twice and adding T cells.” left out

MR1T cell clones = assay: MR1T cell clone stimulation by A375-MR1 cells in the presence of 6-FP or Ac-6-FP; settings: for MR1T cell stimulation in the presence of the ligand: A375-MR1 target cells; for inhibition of activation of MR1T cells: target A375 cells expressing mutant MR1 (A375-MR1 K34A)
Protocol: as §1

MAIT cell clone SMC3 = assay: Stimulation of control MAIT cell clone by RL-6,7-diMe-loaded THP-1 cells
Protocol: T cell activation assays. MR1-restricted T cells (5×10^4/well unless otherwise indicated) were co-cultured with indicated target cells (5×10^4/well) in 200 μl total volume in duplicates or triplicates. T cells were cultured with indicated APCs for 24 h. In some experiments, anti-MR1 mAbs (clone 26.5) or mouse IgG2a isotype control mAbs (both at 30 μg/ml) were added and incubated for 30 min prior to the addition of T cells. E. coli lysate was prepared from the DH5α strain (Invitrogen) grown in LB medium and collected during exponential growth. Bacterial cells were washed twice in PBS and then lysed by sonication. After centrifugation (15,000 g for 15 min), the supernatant was collected, dried, and stored at −70° C. APCs were pulsed for 4 h with E. coli lysate equivalent to 10^8 CFU/ml (unless otherwise indicated) before addition of T cells. […] Supernatants were collected after 24 h and IFN-γ or GM-CSF were assessed by ELISA. Multiple cytokines and chemokines in cell culture supernatants were analyzed using the Milliplex MAP human cytokine/chemokine magnetic bead panel—Premixed 41 plex (HCYTMAG-60K-PX41; Merck Millipore) according to the manufacturer's instructions. Samples were acquired on a Flexmap 3D system (Merck Millipore) and Milliplex analyst software was used to determine mean fluorescence intensity and analyte concentration.

SMILES | E. coli stimulation of control MAIT cells in the presence of the ligand (control MAIT cells) | inhibition of activation of MAIT cells (control MAIT cells) | control TCR γδ cell responses to cognate antigen presented by the same APCs (compound toxicity) (TCR Vγ9Vδ2 clone G2B9) | MR1T cell stimulation in the presence of the ligand (MR1T cell clones) | inhibition of activation of MR1T cells (MR1T cell clones) | stimulation of control MAIT cell clone (MAIT cell clone SMC3)
Nc1nc2ncc(C=O)nc2c(=O)[nH]1 [Clone 6-FP, 6-formyl pterin] | impaired | failed to inhibit | did not disrupt | impaired | failed to inhibit | –
CC(=O)Nc1nc2ncc(C=O)nc2c(=O)[nH]1 [Ac-6-FP, acetyl-6-formyl pterin] | impaired | failed to inhibit | did not disrupt | impaired | failed to inhibit | –
Cc1nc2c(=O)[nH]c(=O)nc-2n(C[C@H](O)[C@H](O)[C@H](O)CO)c1C [RL-6,7-diMe, 6,7-dimethyl-8-D-ribityllumazine] | – | – | – | – | – | stimulated in MR1-dependent manner
